One assay addresses BRD4(49-170) bromodomain (Homo sapiens (Human), UniProt O60885). The experiment in a line: BRD4 AlphaScreen Assay. Conditions: binding to biotin-H4(1-21) Ac-K5/8/12/16 peptide. A digest of the protocol:
(§1)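 IC50 values derived by variable-slope dose-response fit between negative and DMSO control signals. AlphaScreen signal reports bromodomain association with an H4(1-21) peptide acetylated at K5, K8, K12 and K16.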
A general note: In Alpha technology, singlet oxygen from a donor bead excites a nearby acceptor bead.

In assay [1] the target is GST-CBP(1081-1197) bromodomain (Homo sapiens (Human), UniProt Q92793). Put plainly: CBP AlphaScreen Assay. The settings on record: binding to biotin-H4(1-21) Ac-K5/8/12/16 peptide. A digest of the protocol: as §1
Chain of GST-CBP(1081-1197) bromodomain (Q92793 1081-1197): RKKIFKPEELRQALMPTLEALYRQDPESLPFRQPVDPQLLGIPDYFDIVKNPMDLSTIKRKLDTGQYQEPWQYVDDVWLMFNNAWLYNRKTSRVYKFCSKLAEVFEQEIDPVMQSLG

Regarding `CNC(=O)N1CCn2c(C3CC3)nc(-c3c(F)ccc4cc(-c5cn(C)nc5C)ncc34)c2C1` [Example 72, 3-cyclopropyl-1-(3-(1,3-dimethyl-1H-pyrazol-4-yl)-7-fluoroisoquinolin-8-yl)-N-methyl-5,6-dihydroimidazo[1,5-a]pyrazine-7(8H)-carboxamide], the half-inhibitory concentration (IC50) (in general, the concentration that inhibits the measured activity by half) at BRD4(49-170) bromodomain stood at 17.1 µM; in assay [1], 0.054 µM.

Regarding `CNC(=O)N1CCn2c(C3CCOCC3)nc(-c3c(F)ccc4cc(-c5cn(C)nc5C)ncc34)c2C1` [Example 73, 1-(3-(1,3-dimethyl-1H-pyrazol-4-yl)-7-fluoroisoquinolin-8-yl)-N-methyl-3-(tetrahydro-2H-pyran-4-yl)-5,6-dihydroimidazo[1,5-a]pyrazine-7(8H)-carboxamide], the half-inhibitory concentration (IC50) on BRD4(49-170) bromodomain was over 25 µM; in assay [1], 0.04 µM.

As to `CNC(=O)N1CCn2c(C3CCC(F)(F)CC3)nc(-c3cccc4cc(N5CCOCC5)ncc34)c2C1` [Example 74, 3-(4,4-difluorocyclohexyl)-N-methyl-1(3-morpholinoisoquinolin-8-yl)-5,6-dihydroimidazo[1,5-a]pyrazine-7(8H)-carboxamide], the IC50 on BRD4(49-170) bromodomain is over 25 µM; in assay [1], 0.004 µM.

Consider `CNC(=O)N1CCn2c(C3CC3)nc(-c3c(F)ccc4cc(C5CCOCC5)ncc34)c2C1` [Example 75, 3-cyclopropyl-1-(7-fluoro-3-(tetrahydro-2H-pyran-4-yl)isoquinolin-8-yl)-N-methyl-5,6-dihydroimidazo[1,5-a]pyrazine-7(8H)-carboxamide], for which the IC50 at BRD4(49-170) bromodomain is over 25 µM; in assay [1], 0.022 µM.

Regarding `CNC(=O)N1CCn2c(C3CCC(F)(F)CC3)nc(-c3cccc4cc(-c5cn(C)nc5C)ncc34)c2C1` [Example 76, 3-(4,4-difluorocyclohexyl)-1-(3-(1,3-dimethyl-1H-pyrazol-4-yl)isoquinolin-8-yl)-N-methyl-5,6-dihydroimidazo[1,5-a]pyrazine-7(8H)-carboxamide], the IC50 at BRD4(49-170) bromodomain stood at 11.9 µM; in assay [1], 0.003 µM.

As to `CNC(=O)N1CCn2c(C3CC(F)(F)C3)nc(-c3c(F)ccc4cc(-c5cn(C)nc5C)ncc34)c2C1` [Example 77, 3-(3,3-difluorocyclobutyl)-1-(3-(1,3-dimethyl-1H-pyrazol-4-yl)-7-fluoroisoquinolin-8-yl)-N-methyl-5,6-dihydroimidazo[1,5-a]pyrazine-7(8H)-carboxamide], the IC50 at BRD4(49-170) bromodomain was over 25 µM; in assay [1], 0.045 µM.

On to `CNC(=O)N1CCn2c(C3CCC(F)(F)CC3)nc(-c3cccc4nc(-c5cnn(C)c5)c(C(F)(F)F)cc34)c2C1` [Example 78, 3-(4,4-difluorocyclohexyl)-N-methyl-1-(2-(1-methyl-1H-pyrazol-4-yl)-3-(trifluoromethyl)quinolin-5-yl)-5,6-dihydroimidazo[1,5-a]pyrazine-7(8H)-carboxamide], for which the IC50 at BRD4(49-170) bromodomain came out at 13.5 µM; in assay [1] it was 0.001 µM.

As for `CNC(=O)N1CCn2c(C3CC(F)(F)C3)nc(-c3cccc4cc(-c5ccn(C)n5)ncc34)c2C1` [Example 79, 3-(3,3-difluorocyclobutyl)-N-methyl-1-(3-(1-methyl-1H-pyrazol-3-yl)isoquinolin-8-yl)-5,6-dihydroimidazo[1,5-a]pyrazine-7(8H)-carboxamide], the half-inhibitory concentration (IC50) at BRD4(49-170) bromodomain was 14.8 µM; in assay [1], 0.006 µM.

As to `CNC(=O)N1CCn2c(C3CCC(F)(F)CC3)nc(-c3cccc4cc(-c5ccn(C)n5)ncc34)c2C1` [Example 80, 3-(4,4-difluorocyclohexyl)-N-methyl-1-(3-(1-methyl-1H-pyrazol-3-yl)isoquinolin-8-yl)-5,6-dihydroimidazo[1,5-a]pyrazine-7(8H)-carboxamide], the IC50 on BRD4(49-170) bromodomain was determined as 11.9 µM; in assay [1] it was 0.002 µM.

Turning to `CNC(=O)N1CCn2c(C3CCC(F)(F)CC3)nc(-c3c(F)ccc4cc(-c5cn(C)nc5C)ncc34)c2C1` [Example 81, 3-(4,4-difluorocyclohexyl)-1-(3-(1,3-dimethyl-1H-pyrazol-4-yl)-7-fluoroisoquinolin-8-yl)-N-methyl-5,6-dihydroimidazo[1,5-a]pyrazine-7(8H)-carboxamide], the results for the IC50 (at BRD4(49-170) bromodomain; in assay [1]) were 10.5 µM and 0.011 µM, respectively.

As to `CNC(=O)N1CCn2c(C3CCC(F)(F)CC3)nc(-c3cccc4nc(-c5cnn(C)c5)c(C#N)cc34)c2C1` [Example 82, 1-(3-cyano-2-(1-methyl-1H-pyrazol-4-yl)quinolin-5-yl)-3-(4,4-difluorocyclohexyl)-N-methyl-5,6-dihydroimidazo[1,5-a]pyrazine-7(8H)-carboxamide], the IC50 came out at 17.9 µM on BRD4(49-170) bromodomain and 0.003 µM in assay [1].

Consider `CNC(=O)N1CCn2c(C3CCOCC3)nc(-c3c(F)ccc4cc(C5CCOCC5)ncc34)c2C1` [Example 83, 1-(7-fluoro-3-(tetrahydro-2H-pyran-4-yl)isoquinolin-8-yl)-N-methyl-3-(tetrahydro-2H-pyran-4-yl)-5,6-dihydroimidazo[1,5-a]pyrazine-7(8H)-carboxamide], for which the figures for the concentration for half-maximal inhibition (IC50) (on BRD4(49-170) bromodomain; in assay [1]) were 19.4 µM and 0.016 µM, respectively.

Consider `CNC(=O)N1CCn2c(C3CCC(F)(F)CC3)nc(-c3cccc4cc(C5CCOCC5)ncc34)c2C1` [Example 84, 3-(4,4-difluorocyclohexyl)-N-methyl-1-(3-(tetrahydro-2H-pyran-4-yl)isoquinolin-8-yl)-5,6-dihydroimidazo[1,5-a]pyrazine-7(8H)-carboxamide], for which the results for the IC50 (at BRD4(49-170) bromodomain; in assay [1]) were 12.1 µM and 0.004 µM, respectively.

`CNC(=O)N1CCn2c(C3CC(F)(F)C3)nc(-c3cccc4cc(C5CCOCC5)ncc34)c2C1` [Example 85, 3-(3,3-difluorocyclobutyl)-N-methyl-1-(3-(tetrahydro-2H-pyran-4-yl)isoquinolin-8-yl)-5,6-dihydroimidazo[1,5-a]pyrazine-7(8H)-carboxamide]: the half-maximal inhibitory concentration (IC50) at BRD4(49-170) bromodomain was determined as 18.1 µM; in assay [1], 0.015 µM.

`CNC(=O)N1CCn2c(C3CCOCC3)nc(-c3c(F)ccc4cc(-c5cnc(C)s5)ncc34)c2C1` [Example 89, 1-(7-fluoro-3-(2-methylthiazol-5-yl)isoquinolin-8-yl)-N-methyl-3-(tetrahydro-2H-pyran-4-yl)-5,6-dihydroimidazo[1,5-a]pyrazine-7(8H)-carboxamide]: the IC50 at BRD4(49-170) bromodomain was 6.84 µM; in assay [1], 0.002 µM.

In the case of `CNC(=O)N1CCn2c(C3CCC(F)(F)CC3)nc(-c3c(F)ccc4cc(C5CCOCC5)ncc34)c2C1` [Example 90, 3-(4,4-difluorocyclohexyl)-1-(7-fluoro-3-(tetrahydro-2H-pyran-4-yl)isoquinolin-8-yl)-N-methyl-5,6-dihydroimidazo[1,5-a]pyrazine-7(8H)-carboxamide], the results for the IC50 (at BRD4(49-170) bromodomain; in assay [1]) were 10.2 µM and 0.004 µM, respectively.

As for `CNC(=O)N1CCn2c(C3CC(F)(F)C3)nc(-c3c(F)ccc4cc(C5CCOCC5)ncc34)c2C1` [Example 91, 3-(3,3-difluorocyclobutyl)-1-(7-fluoro-3-(tetrahydro-2H-pyran-4-yl)isoquinolin-8-yl)-N-methyl-5,6-dihydroimidazo[1,5-a]pyrazine-7(8H)-carboxamide], the IC50 at BRD4(49-170) bromodomain amounted to 22.4 µM; in assay [1], 0.048 µM.

On to `CNC(=O)N1CCn2c(C3CC(F)(F)C3)nc(-c3c(F)ccc4cc(-c5cnc(C)s5)ncc34)c2C1` [Example 92, 3-(3,3-difluorocyclobutyl)-1-(7-fluoro-3-(2-methylthiazol-5-yl)isoquinolin-8-yl)-N-methyl-5,6-dihydroimidazo[1,5-a]pyrazine-7(8H)-carboxamide], for which the IC50 was over 25 µM on BRD4(49-170) bromodomain and 0.01 µM in assay [1].

As to `CNC(=O)N1CCn2c(C3CCC(F)(F)CC3)nc(-c3c(F)ccc4cc(-c5cnc(C)s5)ncc34)c2C1` [Example 93, 3-(4,4-difluorocyclohexyl)-1-(7-fluoro-3-(2-methylthiazol-5-yl)isoquinolin-8-yl)-N-methyl-5,6-dihydroimidazo[1,5-a]pyrazine-7(8H)-carboxamide], the 50% inhibitory concentration (IC50) is over 25 µM on BRD4(49-170) bromodomain and 0.002 µM in assay [1].

Consider `CNC(=O)N1CCn2c(C3CCOCC3)nc(-c3c(F)ccc4cc(-c5ccn(C)n5)ncc34)c2C1` [Example 94, 1-(7-fluoro-3-(1-methyl-1H-pyrazol-3-yl)isoquinolin-8-yl)-N-methyl-3-(tetrahydro-2H-pyran-4-yl)-5,6-dihydroimidazo[1,5-a]pyrazine-7(8H)-carboxamide], for which the IC50 at BRD4(49-170) bromodomain is over 25 µM; in assay [1] it was 0.012 µM.

Consider `CNC(=O)N1CCn2c(C3CCOCC3)nc(-c3cccc4cc(-c5cnc(C)s5)ncc34)c2C1` [Example 95, N-methyl-1-(3-(2-methylthiazol-5-yl)isoquinolin-8-yl)-3-(tetrahydro-2H-pyran-4-yl)-5,6-dihydroimidazo[1,5-a]pyrazine-7(8H)-carboxamide], for which the figures for the IC50 (on BRD4(49-170) bromodomain; in assay [1]) were 3.48 µM and 0.001 µM, respectively.

In the case of `CNC(=O)N1CCn2c(C3CC(F)(F)C3)nc(-c3cccc4cc(-c5cnc(C)s5)ncc34)c2C1` [Example 96, 3-(3,3-difluorocyclobutyl)-N-methyl-1-(3-(2-methylthiazol-5-yl)isoquinolin-8-yl)-5,6-dihydroimidazo[1,5-a]pyrazine-7(8H)-carboxamide], the figures for the IC50 (at BRD4(49-170) bromodomain; in assay [1]) were 5.54 µM and 0.002 µM, respectively.

In the case of `CNC(=O)N1CCn2c(C3CCC(F)(F)CC3)nc(-c3cccc4cc(-c5cnc(C)s5)ncc34)c2C1` [Example 97, 3-(4,4-difluorocyclohexyl)-N-methyl-1-(3-(2-methylthiazol-5-yl)isoquinolin-8-yl)-5,6-dihydroimidazo[1,5-a]pyrazine-7(8H)-carboxamide], the half-inhibitory concentration (IC50) at BRD4(49-170) bromodomain is 3.32 µM; in assay [1], 0.001 µM.

Turning to `CNC(=O)N1CCn2c(C3CC3)nc(-c3cccc4nc(-c5cn(C)nc5C)c(C#N)cc34)c2C1` [Example 98, 1-(3-cyano-2-(1,3-dimethyl-1H-pyrazol-4-yl)quinolin-5-yl)-3-cyclopropyl-N-methyl-5,6-dihydroimidazo[1,5-a]pyrazine-7(8H)-carboxamide], the IC50 on BRD4(49-170) bromodomain came out at 9.58 µM; in assay [1] it was 0.025 µM.

(Values after patent US11058688B2, “Imidazopiperazine inhibitors of transcription activating proteins” (Board of Regents, The University of Texas System, priority 2018, dated 2021).)
